“Also recorded” adds a separate entry of the source.
Target: WT BTK (Homo sapiens, UniProt Q06187)
Assay: In vitro dialysis assay (irreversibility assay), WT BTK
Type: biochemical
Conditions: for Conclusion (WT BTK): reversible or irreversible inhibition after 24 hr dialysis; for Recovery after 24 h dialysis: 0.003 mM compound pre-incubated with 2 nM BTK for 2 hr, dialyzed 24 hr against buffer with 40 mM ATP, BTK activity vs non-dialyzed samples
Protocol: The compound-enzyme complex was dialyzed against the same buffer supplemented with 40 mM ATP for 24 hr. Cumulative dialysis factor >160,000×. After dialysis, the BTK activity was measured in the presence 40 mM ATP and 1 mM substrate peptide and compared to that in non-dialyzed samples. Assay buffer: 100 mM HEPES, pH7.5; 0.1% BSA, 0.01% Triton-X 100; 5 mM MgCl2; 1 mM DTT.

Chain of WT BTK (Q06187 whole entry): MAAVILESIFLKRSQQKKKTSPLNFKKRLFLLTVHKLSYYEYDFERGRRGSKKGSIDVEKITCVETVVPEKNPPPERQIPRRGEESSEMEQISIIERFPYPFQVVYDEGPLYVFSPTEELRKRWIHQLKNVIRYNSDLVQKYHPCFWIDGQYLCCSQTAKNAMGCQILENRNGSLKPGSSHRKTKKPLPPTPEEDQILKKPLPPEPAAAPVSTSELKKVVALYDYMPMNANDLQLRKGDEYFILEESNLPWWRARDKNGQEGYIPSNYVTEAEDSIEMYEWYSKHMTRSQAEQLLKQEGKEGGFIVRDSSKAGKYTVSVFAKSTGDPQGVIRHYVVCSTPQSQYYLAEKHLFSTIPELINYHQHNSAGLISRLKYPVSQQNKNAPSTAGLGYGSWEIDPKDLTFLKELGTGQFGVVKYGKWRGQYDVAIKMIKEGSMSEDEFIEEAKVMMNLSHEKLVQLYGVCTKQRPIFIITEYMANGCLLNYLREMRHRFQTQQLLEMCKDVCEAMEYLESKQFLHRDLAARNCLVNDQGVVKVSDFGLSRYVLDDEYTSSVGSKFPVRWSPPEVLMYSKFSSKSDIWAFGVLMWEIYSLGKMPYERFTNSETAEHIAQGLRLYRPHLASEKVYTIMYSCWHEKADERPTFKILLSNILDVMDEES

For `C=CC(=O)Nc1cc(Nc2nc(-c3ccnc(N4CCn5c(cc6c5CC(C)(C)C6)C4=O)c3CO)cn(C)c2=O)ccc1N1CCN(C2COC2)C[C@@H]1C` [Example 3, (S)—N-(5-((6-(2-(7,7-dimethyl-1-oxo-1,3,4,6,7,8-hexahydro-2H-cyclopenta[4,5]pyrrolo[1,2-a]pyrazin-2-yl)-3-(hydroxymethyl)pyridin-4-yl)-4-methyl-3-oxo-3,4-dihydropyrazin-2-yl)amino)-2-(2-methyl-4-(oxetan-3-yl)piperazin-1-yl)phenyl)acrylamide], the “Conclusion (WT BTK)” value was “irreversible inhibitors; also recorded: Irreversible/covalent inhibition”.
With `C=CC(=O)Nc1cc(Nc2nc(-c3ccnc(N4CCn5c(cc6c5CC(C)(C)C6)C4=O)c3C)cn(C)c2=O)ccc1N1CCN(C2COC2)C[C@@H]1C` [Example 11, (S)—N-(5-((6-(2-(7,7-dimethyl-1-oxo-1,3,4,6,7,8-hexahydro-2H-cyclopenta[4,5]pyrrolo[1,2-a]pyrazin-2-yl)-3-methylpyridin-4-yl)-4-methyl-3-oxo-3,4-dihydropyrazin-2-yl)amino)-2-(2-methyl-4-(oxetan-3-yl)piperazin-1-yl)phenyl)acrylamide] the “Conclusion (WT BTK)” value was “irreversible inhibitors; also recorded: Irreversible/covalent inhibition”.
For `C=CC(=O)Nc1cc(Nc2nc(-c3ccnc(N4CCn5c(cc6c5CC(C)(C)C6)C4=O)c3CO)cn(C)c2=O)ccc1N1CCC(N2CCOCC2)CC1C` (stereo not shown) [Example 12, N-(5-((6-(2-(7,7-dimethyl-1-oxo-1,3,4,6,7,8-hexahydro-2H-cyclopenta[4,5]pyrrolo[1,2-a]pyrazin-2-yl)-3-(hydroxymethyl)pyridin-4-yl)-4-methyl-3-oxo-3,4-dihydropyrazin-2-yl)amino)-2-(2-methyl-4-morpholinopiperidin-1-yl)phenyl)acrylamide], the “Conclusion (WT BTK)” value was “irreversible inhibitors; also recorded: Irreversible/covalent inhibition”.
For `C=CC(=O)Nc1cc(Nc2nc(-c3ccnc(N4CCn5c(cc6c5CC(C)(C)C6)C4=O)c3C)cn(C)c2=O)ccc1N1CCC(N2CCOCC2)CC1C` [Example 17, N-(5-[[6-(2-[4,4-dimethyl-9-oxo-1,10-diazatricyclo[6.4.0.0^[2,6]]dodeca-2(6),7-dien-10-yl]-3-methylpyridin-4-yl)-4-methyl-3-oxopyrazin-2-yl]amino]-2-[(2S)-2-methyl-4-(morpholin-4-yl)piperidin-1-yl]phenyl)prop-2-enamide], the “Conclusion (WT BTK)” value was “Irreversible/covalent inhibition”.
`C=CC(=O)Nc1cc(Nc2nc(-c3ccnc(N4CCn5c(cc6c5CC(C)(C)C6)C4=O)c3C)cn(C)c2=O)ccc1N1CCC(N2CCOCC2)CC1.Cl` [Example 18, N-(5-[[6-(2-[4,4-dimethyl-9-oxo-1,10-diazatricyclo[6.4.0.0^[2,6]]dodeca-2(6),7-dien-10-yl]-3-methylpyridin-4-yl)-4-methyl-3-oxopyrazin-2-yl]amino]-2-[4-(morpholin-4-yl)piperidin-1-yl]phenyl)prop-2-enamide hydrochloride] was tested, and the “Recovery after 24 h dialysis” value was ~1% and the “Conclusion (WT BTK)” value was “Irreversible/covalent inhibition”.
With `C=CC(=O)Nc1cc(Nc2nc(-c3ccnc(N4CCn5c(cc6c5CC(C)(C)C6)C4=O)c3CO)cn(C)c2=O)ccc1N1CCC(N2CCC(F)(F)CC2)CC1` [Example 20, N-(2-[4,4-difluoro-[1,4′-bipiperidin]-1′-yl]-5-[[6-(2-[4,4-dimethyl-9-oxo-1,10-diazatricyclo[6.4.0.0^[2,6]]dodeca-2(6),7-dien-10-yl]-3-(hydroxymethyl)pyridin-4-yl)-4-methyl-3-oxopyrazin-2-yl]amino]phenyl)prop-2-enamide] the “Recovery after 24 h dialysis” value was ~1% and the “Conclusion (WT BTK)” value was “Irreversible/covalent inhibition”.
For `C=CC(=O)Nc1cc(Nc2nc(-c3ccnc(N4CCn5c(cc6c5CC(C)(C)C6)C4=O)c3CO)cn(C)c2=O)ccc1N1CCC(N2CCN(C)CC2)CC1` [Example 21, N-(5-[[6-(2-[4,4-dimethyl-9-oxo-1,10-diazatricyclo[6.4.0.0^[2,6]]dodeca-2(6),7-dien-10-yl]-3-(hydroxymethyl)pyridin-4-yl)-4-methyl-3-oxopyrazin-2-yl]amino]-2-[4-(4-methylpiperazin-1-yl)piperidin-1-yl]phenyl)prop-2-enamide], the “Recovery after 24 h dialysis” value was ~1% and the “Conclusion (WT BTK)” value was “Irreversible/covalent inhibition”.
`C=CC(=O)Nc1cc(Nc2nc(-c3ccnc(N4CCn5c(cc6c5CC(C)(C)C6)C4=O)c3CO)cn(C)c2=O)ccc1N1CCN(C2CCC(F)(F)CC2)C[C@@H]1C` [Example 23, N-[2-[(2S)-4-(4,4-difluorocyclohexyl)-2-methylpiperazin-1-yl]-5-[[6-(2-[4,4-dimethyl-9-oxo-1,10-diazatricyclo[6.4.0.0^[2,6]]dodeca-2(6),7-dien-10-yl]-3-(hydroxymethyl)pyridin-4-yl)-4-methyl-3-oxopyrazin-2-yl]amino]phenyl]prop-2-enamide] was tested, and the “Recovery after 24 h dialysis” value was ~1% and the “Conclusion (WT BTK)” value was “Irreversible/covalent inhibition”.
For `C=CC(=O)Nc1cc(Nc2nc(-c3ccnc(N4CCCn5c(cc6c5CC(C)(C)C6)C4=O)c3CO)cn(C)c2=O)ccc1N1CCN(C2COC2)C[C@@H]1C` [Example 29, N-(5-[[6-(2-[4,4-dimethyl-9-oxo-1,10-diazatricyclo[6.5.0.0^[2,6]]trideca-2(6),7-dien-10-yl]-3-(hydroxymethyl)pyridin-4-yl)-4-methyl-3-oxopyrazin-2-yl]amino]-2-[(2S)-2-methyl-4-(oxetan-3-yl)piperazin-1-yl]phenyl)prop-2-enamide], the “Recovery after 24 h dialysis” value was ~1% and the “Conclusion (WT BTK)” value was “Irreversible/covalent inhibition”.
In the case of `C=CC(=O)Nc1cc(Nc2nc(-c3ccnc(N4CCc5c(sc6c5CCC6(C)C)C4=O)c3CO)cn(C)c2=O)ccc1N1CCN(C2COC2)C[C@@H]1C` [Example 35, N-(5-[[6-(2-[5,5-dimethyl-9-oxo-7-thia-10-azatricyclo[6.4.0.0^[2,6]]dodeca-1(8),2(6)-dien-10-yl]-3-(hydroxymethyl)pyridin-4-yl)-4-methyl-3-oxopyrazin-2-yl]amino]-2-[(2S)-2-methyl-4-(oxetan-3-yl)piperazin-1-yl]phenyl)prop-2-enamide], the “Recovery after 24 h dialysis” value is reported as ~1% and the “Conclusion (WT BTK)” value is reported as “Irreversible/covalent inhibition”.
With `C=CC(=O)Nc1cc(Nc2nc(-c3ccnc(N4CCc5c(sc6c5CCCC6)C4=O)c3CO)cn(C)c2=O)ccc1N1CCN(C2COC2)C[C@@H]1C` [Example 36, N-[5-([6-[3-(hydroxymethyl)-2-[6-oxo-8-thia-5-azatricyclo[7.4.0.0 ^[2,7]]trideca-1(9),2(7)-dien-5-yl]pyridin-4-yl]-4-methyl-3-oxopyrazin-2-yl]amino)-2-[(2S)-2-methyl-4-(oxetan-3-yl)piperazin-1-yl]phenyl]prop-2-enamide] the “Recovery after 24 h dialysis” value was ~1% and the “Conclusion (WT BTK)” value was “Irreversible/covalent inhibition”.
In the case of `C=CC(=O)Nc1cc(Nc2nc(-c3ccnc(N4CCCn5c(cc6c5CC(C)(C)C6)C4=O)c3CO)cn(C)c2=O)ccc1N1CCN([C@H]2C[C@@H](C)O[C@@H](C)C2)C[C@@H]1C` [Example 38, N-(5-[[6-(2-[4,4-dimethyl-9-oxo-1,10-diazatricyclo[6.5.0.0^[2,6]]trideca-2(6),7-dien-10-yl]-3-(hydroxymethyl)pyridin-4-yl)-4-methyl-3-oxopyrazin-2-yl]amino]-2-[(2S)-2-methyl-4-[(2R,4r,6S)-2,6-dimethyloxan-4-yl]piperazin-1-yl]phenyl)prop-2-enamide], the “Recovery after 24 h dialysis” value is reported as ~1% and the “Conclusion (WT BTK)” value is reported as “Irreversible/covalent inhibition”.
`C=CC(=O)Nc1cc(Nc2nc(-c3ccnc(N4CCn5c(cc6c5CC(C)(C)C6)C4=O)c3CO)cn(C)c2=O)ccc1N1CCN(C2CCOC2)C[C@@H]1C` (stereo partly drawn) [Example 39, N-(5-[[6-(2-[4,4-dimethyl-9-oxo-1,10-diazatricyclo[6.4.0.0^[2,6]]dodeca-2(6),7-dien-10-yl]-3-(hydroxymethyl)pyridin-4-yl)-4-methyl-3-oxopyrazin-2-yl]amino]-2-[(2S)-2-methyl-4-(oxolan-3-yl)piperazin-1-yl]phenyl)prop-2-enamide] was tested, and the “Recovery after 24 h dialysis” value was ~1% and the “Conclusion (WT BTK)” value was “Irreversible/covalent inhibition”.
In the case of `C=CC(=O)Nc1cc(Nc2nc(-c3ccnc(N4CCn5c(cc6c5CC(C)(C)C6)C4=O)c3C)cn(C)c2=O)ccc1N1CCN(C2CCOCC2)C[C@@H]1C` [Example 40, N-(5-[[6-(2-[4,4-dimethyl-9-oxo-1,10-diazatricyclo[6.4.0.0^[2,6]]dodeca-2(6),7-dien-10-yl]-3-methylpyridin-4-yl)-4-methyl-3-oxopyrazin-2-yl]amino]-2-[(2S)-2-methyl-4-(oxan-4-yl)piperazin-1-yl]phenyl)prop-2-enamide], the “Recovery after 24 h dialysis” value is reported as ~1% and the “Conclusion (WT BTK)” value is reported as “Irreversible/covalent inhibition”.
In the case of `C=CC(=O)Nc1cc(Nc2nc(-c3ccnc(N4CCn5c(cc6c5CC(C)(C)C6)C4=O)c3CO)cn(C)c2=O)ccc1C1C(=O)N(C)CCN1C1COC1` (stereo not shown) [Example 41], the “Recovery after 24 h dialysis” value is reported as ~1% and the “Conclusion (WT BTK)” value is reported as “Irreversible/covalent inhibition”.
`C=CC(=O)Nc1cc(Nc2nc(-c3ccnc(N4CCn5c(cc6c5CC(C)(C)C6)C4=O)c3CO)cn(C)c2=O)ccc1C1CN(C2COC2)CC(=O)N1C` (stereo not shown) [Example 42, N-(5-[[6-(2-[4,4-dimethyl-9-oxo-1,10-diazatricyclo[6.4.0.0^[2,6]]dodeca-2(6),7-dien-10-yl]-3-(hydroxymethyl)pyri-din-4-yl)-4-methyl-3-oxopyrazin-2-yl]amino]-2-[1-methyl-4-(oxetan-3-yl)-6-oxopiperazin-2-yl]phenyl)prop-2-enamide] was tested, and the “Recovery after 24 h dialysis” value was ~1% and the “Conclusion (WT BTK)” value was “Irreversible/covalent inhibition”.

From patent US12637467B2, “Inhibitor of BTK and mutants thereof” (Newave Pharmaceutical Inc., priority 2019, dated 2026)
